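Cells were grown in 96-well plates and exposed to each compound for 48 hours at five concentrations; endpoints were interpolated linearly between bracketing concentrations, or set to the highest concentration if not reached. GI50 = concentration required for 50% inhibition of growth.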 Calls of active or inactive are those of the source. Cut-off read from the data, not from the text of the source: active = GI50 up to about 1.1 µM and inactive = higher. Where only a bound is given, the exact number is not on record here.

Some test systems named below: RXF 393; MDA-N; OVCAR-5; Malme-3M; SR; NCI-H460; HCT-116; TK-10; EKVX; SNB-19; SF-295; HT-29; HCT-15; OVCAR-3; CCRF-CEM; UO-31; SN12C; IGROV-1; 786-0; HCC 2998.
Holding throughout (test): NCI-60 cell line screen, 48 h

For `CCc1c(C)c(C#N)c(=S)n(C2OC(CO)C(O)C(O)C2O)c1C` (stereo not given), the GI50 in the assay on RXF 393, in the assay on MDA-N, in the assay on OVCAR-5, in the assay with Malme-3M, in the assay on SR and in the assay with NCI-H460 was > 100 µM (inactive) each time. For the same compound, the GI50 in the assay with HCT-116, in the assay with TK-10, with EKVX, in the assay with SNB-19, in the assay with SF-295 and with HT-29 was > 100 µM (inactive) each time. The GI50 was above 100 µM with HCT-15; > 100 µM (inactive) in the assay with OVCAR-3; > 100 µM (inactive) in the assay on CCRF-CEM; > 100 µM (inactive) in the assay with UO-31; > 100 µM (inactive) in the assay on SN12C; > 100 µM (inactive) in the assay on IGROV-1. Also, the GI50 with 786-0 and in the assay with HCC 2998 was > 100 µM (inactive) throughout.
Turning to `Cc1cc(C)nc(NS(=O)(=O)c2ccc(Nc3c4ccccc4nc4ccc(C(=O)Nc5ccc(S(=O)(=O)N=C(N)N)cc5)cc34)cc2)n1`, the GI50 was 50.8 µM (inactive) in the assay on RXF 393; > 100 µM (inactive) in the assay on MDA-N; > 100 µM (inactive) in the assay on OVCAR-5; 30.7 µM (inactive) in the assay on Malme-3M; 44.6 µM (inactive) with SR; 36 µM (inactive) with NCI-H460. The GI50 was 70.1 µM (inactive) in the assay with HCT-116; > 100 µM (inactive) in the assay on TK-10; > 100 µM (inactive) in the assay on EKVX; > 100 µM (inactive) in the assay with SNB-19; > 100 µM (inactive) in the assay with SF-295; 59.4 µM (inactive) in the assay with HT-29. Besides, the GI50 in the assay with HCT-15 was 33.3 µM; in the assay on OVCAR-3, 43.4 µM (inactive); with CCRF-CEM, 31 µM (inactive); in the assay on UO-31, 82.4 µM (inactive); in the assay on SN12C, 97.7 µM (inactive); with IGROV-1, > 100 µM (inactive). In addition, the GI50 in the assay with 786-0 was 23.3 µM (inactive); with HCC 2998, > 100 µM (inactive).
As to `CC1=C(C)C(=O)O[C@@H]([C@](C)(O)[C@]2(O)CC[C@@]3(O)[C@@H]4C[C@H](O)[C@]5(O)[C@@H](O)C=CC(=O)[C@]5(C)[C@H]4CC[C@]23C)C1`, the GI50 is > 100 µM (inactive) in the assay on RXF 393; 93.1 µM (inactive) with MDA-N; > 100 µM (inactive) in the assay on OVCAR-5; > 100 µM (inactive) in the assay with Malme-3M; 31.3 µM (inactive) in the assay on SR; > 100 µM (inactive) in the assay with NCI-H460. Besides, the GI50 is 86.9 µM (inactive) in the assay with HCT-116; > 100 µM (inactive) in the assay on TK-10; > 100 µM (inactive) in the assay with EKVX; > 100 µM (inactive) in the assay with SNB-19; > 100 µM (inactive) with SF-295; 86.3 µM (inactive) in the assay with HT-29. For the same compound, the GI50 is above 100 µM with HCT-15; > 100 µM (inactive) with OVCAR-3; 28.4 µM (inactive) with CCRF-CEM; > 100 µM (inactive) with UO-31; > 100 µM (inactive) in the assay with SN12C; > 100 µM (inactive) in the assay on IGROV-1. In addition, the GI50 in the assay with 786-0 and with HCC 2998 was > 100 µM (inactive) throughout.
As for `C=CC(COC(=O)C(C)(C)OC(C)=O)c1ccc(OC(=O)C(C)C)c(OC)c1` (stereo not given), the GI50 in the assay with RXF 393 is 6.07 µM (inactive); in the assay with MDA-N, 3.52 µM (inactive); with OVCAR-5 it was 14.6 µM (inactive); in the assay with Malme-3M, 2.7 µM (inactive); in the assay with SR, 2.56 µM (inactive); in the assay with NCI-H460, 2.62 µM (inactive). Besides, the GI50 with HCT-116 is 4.05 µM (inactive); with TK-10 it was 8.57 µM (inactive); with EKVX it was 12.7 µM (inactive); with SNB-19, 11.1 µM (inactive); in the assay with SF-295, 4.23 µM (inactive); in the assay with HT-29, 3.27 µM (inactive). The GI50 in the assay with HCT-15 is 2.03 µM; in the assay on OVCAR-3, 4.76 µM (inactive); in the assay with CCRF-CEM, 2.78 µM (inactive); with UO-31, 7.69 µM (inactive); in the assay on SN12C, 3.34 µM (inactive); in the assay on IGROV-1, 14.1 µM (inactive). In addition, the GI50 with 786-0 was 7.38 µM (inactive); in the assay with HCC 2998, 3.66 µM (inactive).

For the origin of these results see ChEMBL document CHEMBL1201862, “PubChem BioAssay data set” (2004).
